Data from US9096571B2, “Picolinamide and pyrimidine-4-carboxamide compounds, process for preparing and pharmaceutical composition comprising the same” (SK CHEMICALS CO., LTD., priority 2010, dated 2015).

What was measured:
[1] = molecular target: T1, human-derived 11β-HSD1 (h11β-HSD1) enzyme (Homo sapiens, UniProt P28845); assay: Cell assay on 11β-HSD1 (HEK-293 cells overexpressing h11β-HSD1, cortisone to cortisol, cortisol ELISA); assay type: cell-based; conditions: HEK293, HEK-293 cells transfected with h11β-HSD1; for inhibition at 10 µM: 10 μM compound, read-out: hHSD1 inhibiting activity, % inhibition at 10 μM; for inhibition at 100 µM: 100 μM compound, read-out: hHSD1 inhibiting activity, % inhibition at 100 μM
T1 construct: expressed in transfected cells; host or cells: HEK-293 cells, transfected with Fugene 6
T1 sequence (P28845 whole entry): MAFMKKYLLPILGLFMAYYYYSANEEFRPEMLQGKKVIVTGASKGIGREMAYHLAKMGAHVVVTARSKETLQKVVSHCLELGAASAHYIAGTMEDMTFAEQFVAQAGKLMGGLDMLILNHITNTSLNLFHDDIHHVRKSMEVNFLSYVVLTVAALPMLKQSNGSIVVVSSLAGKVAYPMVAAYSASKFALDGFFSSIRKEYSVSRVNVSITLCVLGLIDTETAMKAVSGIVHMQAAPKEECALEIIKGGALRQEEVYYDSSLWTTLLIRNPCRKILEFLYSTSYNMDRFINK
Description: In order to investigate inhibitory effects of the compounds according to the present invention on activity of human-derived 11β-HSD1 (h11β-HSD1) enzyme, the following experiment was performed.
To assay the activity of the 11β-HSD1 enzyme, a recombinant DNA having h11β-HSD1 gene was introduced into an animal cell to induce overexpression of the enzyme [Arampatzis, S. J Mol. Endocrinol. […] First, HEK-293 cells were incubated using a cell incubator until they reached 70-80% confluency on a surface of the container. The recombinant DNA having h11β-HSD1 gene was mixed with Fugene 6, followed by reaction at room temperature for 1 hour. The resulting material was used to treat the cells, and thus DNA was injected into the cells. The next day, the cell supernatant was removed, followed by supplement of fresh medium, and then the cells were further incubated for 24 hours in the cell incubator.
When the cells were incubated at 70-80% confluency, the cells were detached with trypsin, and the number of cells was measured by using a Hemacytometer. The incubated liquid was diluted to contain 20,000 cells/ml, and 100 μl of the diluted liquid was plated onto each well of the 96-well plate. Following incubation for 24 hours, the compound dissolved in DMSO was diluted to 1/100 by the incubated liquid. 100 μl of the resulting compound-diluted liquid was dispensed into each well, and then incubated for 30 minutes.
The quantitative assay of cortisol generated in this reaction was performed by using a system provided from Assay Designs Inc. The resultant enzyme reactant was added to the plate coated with anti-mouse IgG, and then a specific antibody binding to the cortisol and alkaline phosphatase-bound cortisol are together input thereto, followed by reaction at room temperature for 2 hours. The contents in the wells after reaction were thrown away, and then washing was performed with a buffer solution consisting of surfactant and tris-buffered saline three times. After that, a p-nitrophenyl phosphate solution, which is a substrate for the alkaline phosphatase, was input thereto for coloring reaction, followed by reaction for 1 hour, and then the light absorbance at 405 nm was measured by using a plate reader.

11β-HSD1 = molecular target: T2, 11β-HSD1 (Homo sapiens, UniProt P28845); conditions: healthy candidates and type 2 diabetic patients, but not the obese; cited from earlier work
T2 construct: host or cells: human subjects in vivo
T2 sequence (P28845 whole entry): as above

Row | inhibition at 10 µM [1] [%] | inhibition at 100 µM [1] [%] | SMILES | effect on insulin sensitivity (11β-HSD1)
1 | 38 | 78 | Cc1ccc(C2CCN(c3cccc(C(=O)N[C@H]4C5CC6CC4C[C@](O)(C6)C5)n3)CC2)nc1 [Example 98] | –
2 | 36 | 96 | O=C(N[C@H]1C2CC3CC1C[C@](O)(C3)C2)c1cccc(N2CCC(c3ccccc3)CC2)n1 [Example 47] | –
3 | 41 | 76 | C[C@@H]1CN(S(C)(=O)=O)CCN1c1cccc(C(=O)N[C@H]2C3CC4CC2C[C@](O)(C4)C3)n1 [Example 204] | –
4 | 81 | 87 | C[C@@H]1CN(c2ccc(C(C)(C)O)cc2)CCN1c1cccc(C(=O)N[C@H]2C3CC4CC2C[C@](O)(C4)C3)n1 [Example 173, N-((E)-5-hydroxyadamantan-2-yl)-6-((R)-4-(4-(2-hydroxypropan-2-yl)phenyl)-2-methylpiperazin-1-yl)picolinamide] | –
5 | 65 | 81 | COc1ccc(N2CCN(c3cccc(C(=O)N[C@H]4C5CC6CC4C[C@](O)(C6)C5)n3)[C@H](C)C2)cn1 [Example 119] | –
6 | 75 | 85 | CNC(=O)c1cc(N2CCN(c3cccc(C(=O)N[C@H]4C5CC6CC4C[C@](O)(C6)C5)n3)[C@H](C)C2)ccc1OC [Example 151] | –
7 | 40 | 79 | O=C(N[C@H]1C2CC3CC1C[C@](O)(C3)C2)c1cccc(N2CCN(c3ccc(F)cn3)CC2)n1 [Example 87] | –
8 | 64 | 86 | C[C@@H]1CN(C2CC2)CCN1c1cccc(C(=O)N[C@H]2C3CC4CC2C[C@](O)(C4)C3)n1 [Example 196, 6-((R)-4-cyclopropyl-2-methylpiperazin-1-yl)-N-((E)-5-hydroxyadamantan-2-yl)picolinamide] | –
9 | 68 | 83 | CC1CCCCN1c1cccc(C(=O)N[C@H]2C3CC4CC2C[C@](O)(C4)C3)n1 (stereo partly drawn) [Example 61] | –
10 | 76 | 87 | COc1ccc(N2CCN(c3cccc(C(=O)N[C@H]4C5CC6CC4C[C@](O)(C6)C5)n3)[C@H](C)C2)cc1C(N)=O [Example 150] | –
11 | 42 | 78 | COc1ccc(N2CCN(c3nccc(C(=O)N[C@H]4C5CC6CC4C[C@](O)(C6)C5)n3)[C@H](C)C2)c(F)c1 [Example 231] | –
12 | – | – | CC1(C)[C@@H](OC(=O)CCC(=O)O)CC[C@]2(C)[C@H]3C(=O)C=C4[C@@H]5C[C@@](C)(C(=O)O)CC[C@]5(C)CC[C@@]4(C)[C@]3(C)CC[C@@H]12 [Carbenoxolone] | improves insulin sensitivity
13 | 48 | 79 | C[C@@H]1CN(c2ccc(N)nc2)CCN1c1cccc(C(=O)N[C@H]2C3CC4CC2C[C@](O)(C4)C3)n1 [Example 125, 6-((R)-4-(6-aminopyridin-3-yl)-2-methylpiperazin-1-yl)-N-((E)-5-hydroxyadamantan-2-yl)picolinamide] | –
14 | 64 | 84 | COc1ccc(N2CCN(c3cccc(C(=O)N[C@H]4C5CC6CC4C[C@](O)(C6)C5)n3)[C@H](C)C2)nc1 [Example 118] | –
15 | 58 | 77 | O=C(N[C@H]1C2CC3CC1C[C@](O)(C3)C2)c1cccc(N2CCC(c3ccc(F)cn3)CC2)n1 [Example 97] | –
16 | 56 | 86 | C[C@H]1CN(c2ccc(S(C)(=O)=O)cc2F)CCN1c1nccc(C(=O)N[C@H]2C3CC4CC2C[C@](O)(C4)C3)n1 [Example 284] | –
17 | 68 | 82 | O=C(N[C@H]1C2CC3CC1C[C@](O)(C3)C2)c1cccc(N2CCc3ccccc3C2)n1 [Example 60] | –
18 | 40 | 78 | C[C@@H]1CN(C2CCN(S(C)(=O)=O)CC2)CCN1c1cccc(C(=O)N[C@H]2C3CC4CC2C[C@](O)(C4)C3)n1 [Example 201, N-((E)-5-hydroxyadamantan-2-yl)-6-((R)-2-methyl-4-(1-(methylsulfonyl)piperidin-4-yl)piperazin-1-yl)picolinamide] | –
19 | 73 | 87 | CS(=O)(=O)c1ccc(N2CCN(c3cccc(C(=O)N[C@H]4C5CC6CC4C[C@](O)(C6)C5)n3)CC2)cc1 [Example 77, N-((E)-5-hydroxyadamantan-2-yl)-6-(4-(4-(methylsulfonyl)phenyl)piperazin-1-yl)picolinamide] | –
20 | 54 | 85 | COc1ccc(N2CCCN(c3cccc(C(=O)N[C@H]4C5CC6CC4C[C@](O)(C6)C5)n3)CC2)c(F)c1 [Example 124] | –
21 | 76 | 89 | C[C@@H]1CN(c2ccc(OCC(N)=O)c(Cl)c2)CCN1c1cccc(C(=O)N[C@H]2C3CC4CC2C[C@](O)(C4)C3)n1 [Example 190, 6-((R)-4-(4-(2-amino-2-oxoethoxy)-3-chlorophenyl)-2-methylpiperazin-1-yl)-N-((E)-5-hydroxyadamantan-2-yl)picolinamide] | –
22 | 40 | 84 | Cc1ccc(N2CCN(c3cccc(C(=O)N[C@H]4C5CC6CC4C[C@](O)(C6)C5)n3)CC2)nc1 [Example 88] | –
23 | 41 | 85 | C[C@@H]1CN(CC(C)(C)O)CCN1c1cccc(C(=O)N[C@H]2C3CC4CC2C[C@](O)(C4)C3)n1 [Example 192, 6-((R)-4-(2-hydroxy-2-methylpropyl)-2-methylpiperazin-1-yl)-N-((E)-5-hydroxyadamantan-2-yl)picolinamide] | –
